# In patent US4708966A, “Novel anti-inflammatory agents, pharmaceutical compositions and methods for reducing inflammation” (The Procter & Gamble Company, priority 1986, dated 1987):
# Experiments:
# [1] = tested on: carrageenan rat paw edema; assay: Carrageenan Rat Paw Edema Test; format: in vivo, Male Sprague-Dawley rats; conditions: for ED35: 4 h, oral, by regression analysis, read-out: ID35; for inhibition in vivo at 100 mg/kg: po, 100 mg/kg P.O., paw volume 4 h after carrageenan, vs control group, read-out: Percent Inhibiton at 100 mg/kg dose P.O
# Experimental: Carrageenan Rat Paw Edema Test
# Male Sprague-Dawley rats (Charles River Laboratories) are weighed and food fasted overnight. The animals are then divided into four to six groups of six animals each according to body weights (average about 145 g) so that each group has about the same average body weight (within 10 g).
# The following morning animals are dosed with the test compound and then placed in individual cages. For oral dosing, the drug is suspended in 0.5% methyl cellulose with 2% Tween 80, and delivered via stomach tube in a 5 ml volume.
# Paw volumes (0 time) are determined on both hind paws with a mercury displacement device equipped with a transducer and digitizer. One hour after dosing the test compound, the animals are placed in a plastic restrainer and 50 ul of a 1% (w/w) carrageenan solution in 0.9% saline is injected into the ventral surface of the left rear paw. Four hours after the carrageenan injection, the paw volumes are again determined.
# The results are expressed as percent inhibition of the mean paw volume of the test group relative to the control group. Statistical differences are determined by one way analysis of variance. ID35 values are determined by regression analysis.
# [2] = tested on: arachidonic acid-induced inflamed mouse ear; assay: Arachidonic Acid-Induced Inflamed Mouse Ear Test; format: in vivo, Adult male Cox ICR mice; conditions: for inhibition in vivo at 50 µg/ear: Mus musculus, 50 ug/ear topical, 3 hours, read-out: Percent Inhibition at 50 ug/ear topical dose; for ID50: topical, by regression analysis
# Experimental: Arachidonic Acid-Induced Inflamed Mouse Ear Test
# All drugs are dissolved with arachidonic acid in the vehicle. At the end of 3 hours, animals are sacrificed by cervical dislocation and both ears are removed. A 5 mm punch biopsy is removed from both ears and is weighed to the nearest 0.1 mg on a Cahn electrobalance. Ten animals are used per group. The study usually consists of 4 to 6 groups, of which one is a control group which is treated on the left ear with only arachidonic acid in the vehicle. The results are expressed as percent inhibition of the swelling response compared to the control group. Statistical tests for significance between groups are made using a one way analysis of variance of the ear weight differences. ID50 values are determined by regression analysis.
# [3] = tested on: oxazolone-induced inflamed mouse ear; assay: Oxazolone-Induced Inflamed Mouse Ear Test (Ox-IMET); format: in vivo, Adult male Cox ICR mice; conditions: topical, 25 ul of 10% in ethanol, 24 h after challenge, vs control group, read-out: Percent Inhibition
# Experimental: Oxazolone-Induced Inflamed Mouse Ear Test ("Ox-IMET")
# Adult male Cox ICR mice, 25-35 g, are sensitized by applying 3% oxazolone in olive oil to the clipped abdomen of each animal using a cotton swab. One week later, the mice are challenged on the inner surface of the left ear with 3% oxazolone in aceotone. At the same time 25 ul of the test compound (10% in ethanol) is applied to the outer surface of the same ear. Twenty four hours after the challenge, the animals are sacrificed by cervical dislocation and both ears are removed. A 5 mm punch biopsy is removed from both ears and is weighed to the nearest 0.1 mg on a Cahn electrobalance. Ten animals are used per group. The study usually consists of 4 to 6 groups, of which one is a control group which is challenged on the left ear, but is not treated with a test compound. The results are expressed as percent inhibition of the swelling response compared to the control group. Statistical tests for significance between groups are made using a one way analysis of variance of the ear weight differences.
# [4] = tested on: adjuvant arthritis (modified Freund's adjuvant); assay: Adjuvant Arthritis - Therapeutic; format: in vivo, Male Sprague-Dawley rats; conditions: 0.5 mg/kg, 1 x/day, oral, days 20 through 28
# Experimental: Adjuvant Arthritis Methodology
# Male Sprague-Dawley rats weighing 167-170 gm are allowed to acclimate to the laboratory for at least 3 days. Ten rats are then assigned to the healthy control group and the remaining rats are assigned to the arthritic group. On day 0, the rats in the arthritic group are injected subcutaneously in the middle of their tail with a modified Freund's adjuvant (MFA) at a dosage of 0.05 ml/100 gm body weight. The MFA is made by grinding Mycobacterium butyricum (Mb) and then mixing with mineral oil at a concentration of 10 mg Mb/ml of mineral oil. This is mixed in an Omni mixer for 45 minutes.
# Paw volumes and body weights are determined on days -1, 6, 13, 19, 26, and 29. On day 19, paw volume changes from day -1 are determined for the arthritic group. The rats with paw volume changes≥0.50 ml but ≤2.50 ml are randomized by paw volume changes into the treatment groups on day 20. […] On day 29, two representative rats from each treatment group are photographed, paw volumes and body weights are determined, and then the rats are sacrificed with CO2 and x-rays are taken.
# The radiographs are used to grade bone resorption. Bone resorption is graded in 20 areas of the fore and hind paws. The areas for grading on the hind paw are: distal femur end, proximal tibia and tibula, distal end of the tibia and the small bone under the tibia, calcaneous, tarsus, and metatarsus. The areas on the fore paws are: radius, ulna, carpus, and metacarpus. Each area is given a grade of 0 (no resorption) or 1 (resorption) for possible grade of 20 of each animal.
SMILES,ED35 [1] [mg/kg],inhibition in vivo at 100 mg/kg [1] [%],inhibition in vivo at 50 µg/ear [2] [%],ID50 [2] [ug/ear],inhibition in vivo at 10 % [3] [%],Body Weights % Increase [4] [%],Bone Resorption % Inhibition [4] [%],Paw Volume % Decrease [4] [%]
"C#CC(=O)/C=C/c1cc(C(C)(C)C)c(O)c(C(C)(C)C)c1 [Compound 27, 4-((E)-1'-penten-4'-yn-3'-one)-2,6-di-t-butylphenol]",28.3,62.8,34.8,52.4,–,–,–,–
"CC(C)(C)c1cc(C(=O)CC2OCCO2)cc(C(C)(C)C)c1O [Compound 30, 4-(2'-(1"",3""-dioxolane)acetyl)-2,6-di-t-butylphenol]",35.2,72.8,69.1,29.5,33.4,–,–,–
"COc1ccc2c(c1)c(CC(=O)O)c(C)n2C(=O)c1ccc(Cl)cc1 [Indomethacin, reference compound]",–,–,–,–,–,7,15,43
